From ChEMBL document CHEMBL1201862, “PubChem BioAssay data set” (2004) come the findings set out here.

Test systems include M14; PC-3; SW-620; RXF 393; SNB-75; LOX IMVI; HOP-62; MOLT-4; SK-MEL-28; COLO 205; UACC-62; UACC-257; SN12C; SF-539; CAKI-1; Malme-3M; K562; HL-60; 786-0; TK-10.
Common to all, as to assay: NCI tumour cell line growth inhibition, 48 h

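Where inhibition never reached the appropriate level, the endpoint shown equals the highest concentration tested. Otherwise, values were interpolated linearly from a five-concentration, 48-hour dose response in 96-well plates. GI50 marks 50% less growth.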 Active and inactive are the calls of the source. Cut-off read from the data, not from the text of the source: active = GI50 up to about 1.1 µM and inactive = higher. A value given as a limit tells only on which side of the number the result lay.

In the case of `[O-]c1c2cc(-[n+]3c(-c4ccccc4)cc(-c4ccccc4)cc3-c3ccccc3)cc1CO[C@@H](c1ccccc1)[C@H](c1ccccc1)OCc1cccc(n1)CO[C@@H](c1ccccc1)[C@H](c1ccccc1)OC2`, the GI50 is 0.161 µM (active) in the test with M14; 0.0373 µM (active) with PC-3; 0.0568 µM (active) with SW-620; 0.219 µM (active) in the test on RXF 393; 0.0682 µM (active) in the test with SNB-75; 0.0498 µM (active) in the test with LOX IMVI. Also, the GI50 in the test on HOP-62 was 0.169 µM (active); in the test on MOLT-4 it was 0.0526 µM (active); with SK-MEL-28, 0.713 µM (active); in the test with COLO 205, 0.0259 µM (active); with UACC-62 it was 0.0931 µM (active); in the test with UACC-257, 0.0803 µM (active). Besides, the GI50 in the test with SN12C was 0.0378 µM (active); in the test on SF-539, 0.371 µM (active); in the test with CAKI-1, 0.367 µM (active); in the test on Malme-3M it was 0.0363 µM (active); in the test with K562 it was 0.0293 µM (active); with HL-60, 0.0215 µM (active). Moreover, the values for the GI50 in the test on 786-0 and in the test on TK-10 were 0.0764 µM (active) and 0.594 µM (active), respectively.

As to `CCOC1=NC(C(F)(F)F)(C(F)(F)F)N=C(N2CCCCC2)O1`, the GI50 with M14, in the test with PC-3, with SW-620, in the test with RXF 393, in the test on SNB-75 and in the test with LOX IMVI was > 100 µM (inactive) in each case. In addition, the GI50 with HOP-62, in the test on MOLT-4, in the test with SK-MEL-28, with COLO 205, with UACC-62 and in the test with UACC-257 was > 100 µM (inactive) each time. Besides, the GI50 in the test on SN12C is > 100 µM (inactive); in the test on SF-539 it was > 100 µM (inactive); in the test with CAKI-1, > 100 µM (inactive); in the test with Malme-3M, > 100 µM (inactive); with K562, > 100 µM (inactive); with HL-60 it was 29.3 µM (inactive). For the same molecule, the GI50 with 786-0 and with TK-10 was > 100 µM (inactive) in each case.

Regarding `CCCC(=O)Nc1cc(/C=C/C(=O)N2CC(CCl)c3c2cc(OC(C)=O)c2[nH]cc(C)c32)n(C)c1` (stereo not given), the GI50 was 5.38e-05 µM (active) with M14; 5.01e-05 µM (active) in the test on PC-3; 2.96e-05 µM (active) in the test on SW-620; < 2.5e-05 µM (active) in the test with RXF 393; 5.77e-05 µM (active) in the test with SNB-75; < 2.5e-05 µM (active) in the test with LOX IMVI. Moreover, the GI50 in the test with HOP-62 was 4.63e-05 µM (active); with MOLT-4, < 2.5e-05 µM (active); in the test with SK-MEL-28, 4.52e-05 µM (active); with COLO 205, 7.03e-05 µM (active); with UACC-62, < 2.5e-05 µM (active); in the test on UACC-257 it was 2.97e-05 µM (active). The GI50 was 7.18e-05 µM (active) in the test with SN12C; < 2.5e-05 µM (active) in the test with SF-539; 7.66e-05 µM (active) in the test on CAKI-1; 3.23e-05 µM (active) with Malme-3M; 3.06e-05 µM (active) in the test on K562; < 2.5e-05 µM (active) with HL-60. The GI50 is < 2.5e-05 µM (active) in the test on 786-0 and 0.000363 µM (active) in the test on TK-10.

`CN(C)Cc1cc(C(=O)/C=C/c2ccc(/C=C/C(=O)c3cc(CN(C)C)c(O)c(CN(C)C)c3)cc2)cc(CN(C)C)c1O`: the GI50 with M14 is 17 µM (inactive); in the test with PC-3, 15.1 µM (inactive); with SW-620, 20.8 µM (inactive); in the test with RXF 393, 26.7 µM (inactive); with SNB-75, > 100 µM (inactive); in the test on LOX IMVI it was 11.9 µM (inactive). Moreover, the GI50 with HOP-62 was 26.8 µM (inactive); in the test on MOLT-4, 12.7 µM (inactive); in the test on SK-MEL-28, 29 µM (inactive); in the test on COLO 205 it was 14.4 µM (inactive); in the test on UACC-62, 25.9 µM (inactive); in the test on UACC-257, 24.8 µM (inactive). Also, the GI50 in the test with SN12C was 28.9 µM (inactive); in the test on SF-539, 24.4 µM (inactive); in the test on CAKI-1 it was 39 µM (inactive); in the test with Malme-3M, 34.6 µM (inactive); in the test with K562 it was 25.3 µM (inactive); with HL-60, 14.1 µM (inactive). Further, the GI50 in the test on 786-0 is 19.6 µM (inactive); in the test with TK-10, 36.8 µM (inactive).
